{
  "source": "patent US8940331B2",
  "about": "“Hydrogels, methods of making hydrogels, methods of using hydrogels, and methods of isolating, trapping, attracting, and/or killing cancer cells” (The Board of Trustees of the Leland Stanford Junior …, priority 2008, dated 2015)",
  "key": {"[1]": {"format": "cell-based", "conditions": "MTS assay, cells treated 24 h, concentration causing 50% cell death", "procedure": "(§1) A library of cationic, amphipathic peptoid oligomers (“capetoids”) with various chain lengths, charges, helicity, hydrophobicity and amphipathicity have been synthesized. Their activities towards several in vitro cultured cancer cell lines were tested via MTS assays. Primary dermal fibroblasts and freshly isolated red blood cells were also tested to estimate their biosafety. […] In some concentration ranges, these peptoids kill cancer cells efficiently while being relatively safe to primary dermal fibroblasts. […] Furthermore, the actions of these peptoids were not affected by the known multidrug resistance. In MCF 7 cells and the multidrug resistant MCF 7 cells (kindly provided by Prof. Brandy Sikic at Stanford) which overexpress P-glycoproteins, these peptoids had similar cytotoxicities."}, "human RBCs": {"test_system": "human RBCs", "format": "cell-based", "procedure": "as §1"}, "[2]": {"experiment": "MTS cell viability assay, primary dermal fibroblasts", "format": "cell-based", "conditions": "MTS assay, cells treated 24 h; concentration causing 50% cell death; read-out: LC50 Primary dermal fibroblast", "procedure": "as §1"}, "[3]": {"test_system": "Primary dermal fibroblast", "experiment": "MTS cell viability assay, primary dermal fibroblasts", "format": "cell-based", "conditions": "in vitro; data not shown", "procedure": "as §1"}, "breast cancer cells": {"test_system": "breast cancer cells", "experiment": "In vitro chemotaxis transwell assay", "format": "cell-based", "description": "Different chemoattractants can be chosen with regard to the cancer types of interest. As an example, Table 2 summarizes chemoattractant candidates for breast cancer. The efficacies and dosages of chemoattractants are being characterized by in vitro chemotaxis assays. The chemotactic effects of an important candidate, stromal cell-derived factor 1 (SDF-1), have been confirmed in vitro using the transwell assay."}, "[4]": {"conditions": "read-out: LC50 Lncap (prostate cancer)"}, "[5]": {"conditions": "read-out: LC50 MCF7 (breast cancer)"}, "[6]": {"conditions": "read-out: LC50 MEL28 (Melanoma)"}, "[7]": {"conditions": "read-out: LC50 Ovcar3 (ovarian cancer)"}},
  "note": "Like-named read-outs stand apart in the source and are kept apart here. Square brackets hold non-standard residues; d marks the D form. Peptide text beside a SMILES is read from it. Nspe = C[C@H](NCC(=O)O)c1ccccc1; Nphe = O=C(O)CNCc1ccccc1; Nlys = NCCCCNCC(=O)O",
  "data": [
    {"molecule": "C[C@@H](c1ccccc1)N(CC(N)=O)C(=O)CN(C(=O)CN(CCCCN)C(=O)CN(Cc1ccccc1)C(=O)CN(Cc1ccccc1)C(=O)CN(CCCCN)C(=O)CN(C(=O)CN(C(=O)CN(CCCCN)C(=O)CN(Cc1ccccc1)C(=O)CN(Cc1ccccc1)C(=O)CNCCCCN)[C@@H](C)c1ccccc1)[C@@H](C)c1ccccc1)[C@@H](C)c1ccccc1", "note": "[1-Npm2,3,8,9, H-(NLys-Npm-Npm-NLys-Nspe-Nspe)2-NH2]", "values": [
      {"measurement": "CC50", "setting": "[1]; [4]", "result": 10.5, "unit": "µM"},
      {"measurement": "CC50", "setting": "[1]; [5]", "result": 10, "unit": "µM"},
      {"measurement": "CC50", "setting": "[1]; [6]", "result": 16.5, "unit": "µM"},
      {"measurement": "CC50", "setting": "[1]; [7]", "result": 11, "unit": "µM"},
      {"measurement": "HC10 Red blood cells", "setting": "human RBCs", "result": 80, "unit": "µM"},
      {"measurement": "CC50", "setting": "[2]", "result": 18.5, "unit": "µM"}
    ]},
    {"molecule": "C[C@@H](c1ccccc1)N(CC(=O)N(CC(=O)N(CCCCN)CC(=O)N(CC(=O)N(CC(=O)N(CCCCN)CC(=O)N(CC(=O)N(CC(=O)N(CCCCN)CC(=O)N(CC(=O)N(CC(N)=O)Cc1ccccc1)Cc1ccccc1)Cc1ccccc1)Cc1ccccc1)Cc1ccccc1)Cc1ccccc1)Cc1ccccc1)C(=O)CNCCCCN", "note": "[1achiral-Nspe 2, H-NLys-Nspe-Npm-(NLys-Npm-Npm)3-NH2] (H-[Nlys][Nspe][Nphe][Nlys][Nphe][Nphe][Nlys][Nphe][Nphe][Nlys][Nphe][Nphe]-NH2)", "values": [
      {"measurement": "CC50", "setting": "[1]; [4]", "result": 8.5, "unit": "µM"},
      {"measurement": "CC50", "setting": "[1]; [5]", "result": 14.5, "unit": "µM"},
      {"measurement": "CC50", "setting": "[1]; [6]", "result": 18, "unit": "µM"},
      {"measurement": "CC50", "setting": "[1]; [7]", "result": 15.5, "unit": "µM"},
      {"measurement": "HC10 Red blood cells", "setting": "human RBCs", "result": 160, "unit": "µM"},
      {"measurement": "CC50", "setting": "[2]", "result": 36.5, "unit": "µM"}
    ]},
    {"molecule": "COc1cccc2c1C(=O)c1c(O)c3c(c(O)c1C2=O)C[C@@](O)(C(=O)CO)C[C@@H]3O[C@H]1C[C@H](N)[C@H](O)[C@H](C)O1", "note": "[Doxorubicin, reference compound]", "values": [
      {"measurement": "Killing of primary fibroblasts compared with cancer cell lines", "setting": "[3]", "result": "killed primary fibroblasts as efficiently as cancer cell lines"}
    ]},
    {"molecule": "C[C@@H](c1ccccc1)N(CC(N)=O)C(=O)CN(C(=O)CN(CCCCN)C(=O)CN(C(=O)CN(C(=O)CN(CCCCN)C(=O)CN(C(=O)CN(C(=O)CN(CCCCN)C(=O)CN(C(=O)CN(C(=O)CNCCCCN)[C@@H](C)c1ccccc1)[C@@H](C)c1ccccc1)[C@@H](C)c1ccccc1)[C@@H](C)c1ccccc1)[C@@H](C)c1ccccc1)[C@@H](C)c1ccccc1)[C@@H](C)c1ccccc1", "note": "[Peptoid 1, H-(NLys-Nspe-Nspe)4-NH2] (H-[Nlys][Nspe][Nspe][Nlys][Nspe][Nspe][Nlys][Nspe][Nspe][Nlys][Nspe][Nspe]-NH2)", "values": [
      {"measurement": "CC50", "setting": "[1]; [4]", "result": 5, "unit": "µM"},
      {"measurement": "CC50", "setting": "[1]; [5]", "result": 4.5, "unit": "µM"},
      {"measurement": "CC50", "setting": "[1]; [6]", "result": 5, "unit": "µM"},
      {"measurement": "CC50", "setting": "[1]; [7]", "result": 6.5, "unit": "µM"},
      {"measurement": "HC10 Red blood cells", "setting": "human RBCs; concentration causing 10% hemolysis of human RBCs", "result": 21000, "unit": "µM"},
      {"measurement": "CC50", "setting": "[2]", "result": 5, "unit": "µM"}
    ]},
    {"molecule": "NCCCCNCC(=O)N(CC(=O)N(CC(=O)N(CCCCN)CC(=O)N(CC(=O)N(CC(=O)N(CCCCN)CC(=O)N(CC(=O)N(CC(=O)N(CCCCN)CC(=O)N(CC(=O)N(CC(N)=O)Cc1ccccc1)Cc1ccccc1)Cc1ccccc1)Cc1ccccc1)Cc1ccccc1)Cc1ccccc1)Cc1ccccc1)Cc1ccccc1", "note": "[Peptoid 1achiral, H-(NLys-Npm-Npm)4-NH2] (H-[Nlys][Nphe][Nphe][Nlys][Nphe][Nphe][Nlys][Nphe][Nphe][Nlys][Nphe][Nphe]-NH2)", "values": [
      {"measurement": "CC50", "setting": "[1]; [4]", "result": 10.5, "unit": "µM"},
      {"measurement": "CC50", "setting": "[1]; [5]", "result": 15, "unit": "µM"},
      {"measurement": "CC50", "setting": "[1]; [6]", "result": 18.5, "unit": "µM"},
      {"measurement": "CC50", "setting": "[1]; [7]", "result": 16, "unit": "µM"},
      {"measurement": "HC10 Red blood cells", "setting": "human RBCs", "result": 183, "unit": "µM"},
      {"measurement": "CC50", "setting": "[2]", "result": 39.5, "unit": "µM"}
    ]},
    {"molecule": "C[C@@H](c1ccccc1)N(CC(N)=O)C(=O)CN(CCCCN)C(=O)CN(C(=O)CN(C(=O)CN(CCCCN)C(=O)CN(C(=O)CN(C(=O)CN(CCCCN)C(=O)CN(C(=O)CN(C(=O)CNCCCCN)[C@@H](C)c1ccccc1)[C@@H](C)c1ccccc1)[C@@H](C)c1ccccc1)[C@@H](C)c1ccccc1)[C@@H](C)c1ccccc1)[C@@H](C)c1ccccc1", "note": "[Peptoid 111mer, H-(NLys-Nspe-Nspe)3-NLys-Nspe-NH2] (H-[Nlys][Nspe][Nspe][Nlys][Nspe][Nspe][Nlys][Nspe][Nspe][Nlys][Nspe]-NH2)", "values": [
      {"measurement": "CC50", "setting": "[1]; [4]", "result": 8, "unit": "µM"},
      {"measurement": "CC50", "setting": "[1]; [5]", "result": 9, "unit": "µM"},
      {"measurement": "CC50", "setting": "[1]; [6]", "result": 15, "unit": "µM"},
      {"measurement": "CC50", "setting": "[1]; [7]", "result": 10.5, "unit": "µM"},
      {"measurement": "HC10 Red blood cells", "setting": "human RBCs", "result": 103, "unit": "µM"},
      {"measurement": "CC50", "setting": "[2]", "result": 18.5, "unit": "µM"}
    ]},
    {"molecule": "CC(=O)O[C@@]12CO[C@@H]1C[C@H](O)[C@@]1(C)C(=O)[C@H](O)C3=C(C)[C@@H](OC(=O)[C@H](O)[C@@H](NC(=O)OC(C)(C)C)c4ccccc4)C[C@@](O)([C@@H](OC(=O)c4ccccc4)[C@H]21)C3(C)C", "note": "[docetaxel, reference compound]", "values": [
      {"measurement": "Killing of primary fibroblasts compared with cancer cell lines", "setting": "[3]", "result": "killed primary fibroblasts as efficiently as cancer cell lines"}
    ]},
    {"molecule": "stromal cell-derived factor 1 [SDF-1]", "values": [
      {"measurement": "Chemotactic effects", "setting": "breast cancer cells", "result": "confirmed"}
    ]}
  ]
}
